Legend:
[1] = biological target: T1, Protein deacetylase HDAC6 (Homo sapiens, UniProt Q9UBN7); assay: Inhibition of recombinant HDAC6 (unknown origin) expressed in Escherichia coli BL21(DE3) after 60 mins using trichostatin A by label-free mass spectrometry-based SAMDI assay
T1 sequence (Q9UBN7 whole entry): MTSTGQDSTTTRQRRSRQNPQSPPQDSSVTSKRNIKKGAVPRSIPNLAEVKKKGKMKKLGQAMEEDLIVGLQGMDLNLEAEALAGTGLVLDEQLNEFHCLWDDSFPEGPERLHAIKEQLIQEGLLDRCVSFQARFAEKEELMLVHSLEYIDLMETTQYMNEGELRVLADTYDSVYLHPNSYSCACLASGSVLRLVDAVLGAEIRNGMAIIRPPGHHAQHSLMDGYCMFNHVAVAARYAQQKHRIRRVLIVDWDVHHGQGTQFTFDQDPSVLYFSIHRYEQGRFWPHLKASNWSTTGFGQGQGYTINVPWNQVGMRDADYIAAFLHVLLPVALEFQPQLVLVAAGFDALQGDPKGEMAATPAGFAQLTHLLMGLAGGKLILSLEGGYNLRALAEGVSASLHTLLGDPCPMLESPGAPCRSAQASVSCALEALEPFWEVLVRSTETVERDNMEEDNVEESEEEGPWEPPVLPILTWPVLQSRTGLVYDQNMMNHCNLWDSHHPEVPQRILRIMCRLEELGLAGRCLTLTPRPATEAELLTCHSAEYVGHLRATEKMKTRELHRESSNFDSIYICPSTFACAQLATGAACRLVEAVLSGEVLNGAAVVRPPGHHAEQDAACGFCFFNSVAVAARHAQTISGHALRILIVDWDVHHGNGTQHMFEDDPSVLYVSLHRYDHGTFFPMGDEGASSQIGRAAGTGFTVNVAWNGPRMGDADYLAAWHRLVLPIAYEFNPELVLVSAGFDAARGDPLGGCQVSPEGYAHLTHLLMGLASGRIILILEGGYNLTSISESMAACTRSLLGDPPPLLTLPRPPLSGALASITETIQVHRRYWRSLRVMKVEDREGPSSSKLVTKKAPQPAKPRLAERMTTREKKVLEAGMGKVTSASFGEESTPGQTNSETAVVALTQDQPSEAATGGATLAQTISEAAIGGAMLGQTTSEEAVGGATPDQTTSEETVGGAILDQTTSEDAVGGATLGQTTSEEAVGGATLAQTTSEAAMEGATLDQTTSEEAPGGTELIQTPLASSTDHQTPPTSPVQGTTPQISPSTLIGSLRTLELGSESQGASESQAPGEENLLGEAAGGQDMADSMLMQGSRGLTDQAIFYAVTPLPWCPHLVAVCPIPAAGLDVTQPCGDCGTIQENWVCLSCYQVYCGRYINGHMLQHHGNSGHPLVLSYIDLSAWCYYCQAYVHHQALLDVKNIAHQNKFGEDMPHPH

Histone deacetylase 8 = biological target: T2, Histone deacetylase 8 (Homo sapiens, UniProt Q9BY41); assay: Inhibition of recombinant HDAC8 (unknown origin) expressed in Escherichia coli BL21(DE3) after 60 mins using trichostatin A by label-free mass spectrometry-based SAMDI assay
T2 sequence (Q9BY41 whole entry): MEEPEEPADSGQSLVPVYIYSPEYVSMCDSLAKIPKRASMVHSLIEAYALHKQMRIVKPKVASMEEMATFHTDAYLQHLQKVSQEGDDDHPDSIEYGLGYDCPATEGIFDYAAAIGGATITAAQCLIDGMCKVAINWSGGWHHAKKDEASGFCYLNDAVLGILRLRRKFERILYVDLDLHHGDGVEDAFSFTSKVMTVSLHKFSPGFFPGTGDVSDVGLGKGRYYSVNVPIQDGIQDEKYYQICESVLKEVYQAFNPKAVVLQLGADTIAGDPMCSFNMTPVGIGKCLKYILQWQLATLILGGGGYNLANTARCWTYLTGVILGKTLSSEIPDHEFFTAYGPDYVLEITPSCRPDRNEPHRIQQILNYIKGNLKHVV

Histone deacetylase 1 = Histone deacetylase 1 (Homo sapiens, UniProt Q13547); assay: Inhibition of recombinant HDAC1 (unknown origin) expressed in Escherichia coli BL21(DE3) after 60 mins using trichostatin A by label-free mass spectrometry-based SAMDI assay
Sequence of Histone deacetylase 1 (Q13547 whole entry): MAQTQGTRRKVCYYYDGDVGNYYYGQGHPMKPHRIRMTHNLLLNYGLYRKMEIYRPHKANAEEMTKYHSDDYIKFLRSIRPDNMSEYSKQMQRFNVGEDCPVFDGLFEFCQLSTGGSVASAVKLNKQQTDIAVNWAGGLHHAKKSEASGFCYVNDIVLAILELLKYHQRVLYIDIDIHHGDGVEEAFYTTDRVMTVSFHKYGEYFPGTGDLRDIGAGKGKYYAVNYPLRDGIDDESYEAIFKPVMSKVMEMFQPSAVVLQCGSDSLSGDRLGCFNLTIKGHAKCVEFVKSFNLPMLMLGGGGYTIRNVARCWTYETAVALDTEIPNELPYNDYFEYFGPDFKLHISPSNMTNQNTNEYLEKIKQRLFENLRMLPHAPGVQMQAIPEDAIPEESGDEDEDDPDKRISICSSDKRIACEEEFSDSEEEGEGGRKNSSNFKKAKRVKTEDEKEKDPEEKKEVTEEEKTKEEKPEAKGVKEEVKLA

Compound	IC50 [1] [nM]	IC50 (Histone deacetylase 8) [nM]	IC50 (Histone deacetylase 1) [nM]
CC[C@@H]1OC(=O)[C@H](C)[C@@H](O[C@@H]2C[C@](C)(OC)[C@H](O)[C@@H](C)O2)[C@@H](C)[C@@H](O[C@@H]2O[C@H](C)C[C@H](N(C)Cc3ccccc3-c3cn(CCCCCC(=O)NO)nn3)[C@H]2O)[C@](C)(O)C[C@@H](C)CN(C)[C@H](C)[C@@H](O)[C@]1(C)O	178	4300	613
CC[C@H]1OC(=O)[C@@H](C)[C@H](O[C@H]2C[C@@](C)(OC)[C@@H](O)[C@H](C)O2)[C@H](C)[C@H](O[C@H]2O[C@@H](C)C[C@@H](N(C)Cc3ccc(-c4cn(CCCCCC(=O)NO)nn4)cc3)[C@@H]2O)[C@@](C)(O)C[C@H](C)CN(C)[C@@H](C)[C@H](O)[C@@]1(C)O (stereo in doubt)	14.3	604	316
CC[C@H]1OC(=O)[C@@H](C)[C@H](O[C@H]2C[C@@](C)(OC)[C@@H](O)[C@H](C)O2)[C@H](C)[C@H](O[C@H]2O[C@@H](C)C[C@@H](N(C)Cc3ccc(-c4cn(CCC(=O)NO)nn4)cc3)[C@@H]2O)[C@@](C)(O)C[C@H](C)CN(C)[C@@H](C)[C@H](O)[C@@]1(C)O	2170	> 10000	> 10000
CC[C@H]1OC(=O)[C@H](C)C(=O)[C@H](C)[C@@H](O[C@@H]2O[C@H](C)C[C@H](N(C)Cc3ccc(-c4cn(CCCCCC(=O)NO)nn4)cc3)[C@H]2O)[C@@](C)(OC)C[C@@H](C)C2=NCCN3C(=O)O[C@@]1(C)[C@H]3[C@H]2C	8.9	2030	73.1
CC[C@@H]1OC(=O)[C@H](C)[C@@H](O[C@@H]2C[C@](C)(OC)[C@H](O)[C@@H](C)O2)[C@@H](C)[C@@H](O[C@@H]2O[C@H](C)C[C@H](N(C)Cc3cccc(-c4cn(CCCCCC(=O)NO)nn4)c3)[C@H]2O)[C@](C)(O)C[C@@H](C)CN(C)[C@H](C)[C@@H](O)[C@]1(C)O	43.8	604	109
CC[C@@H]1OC(=O)[C@H](C)[C@@H](O[C@@H]2C[C@](C)(OC)[C@H](O)[C@@H](C)O2)[C@@H](C)[C@@H](O[C@@H]2O[C@H](C)C[C@H](N(C)Cc3ccc(-c4cn(CCCCC(=O)NO)nn4)cc3)[C@H]2O)[C@](C)(O)C[C@@H](C)CN(C)[C@H](C)[C@@H](O)[C@]1(C)O	145	5380	1650
CC[C@H]1OC(=O)[C@@H](C)[C@H](O[C@@H]2C[C@](C)(OC)[C@@](O)(CN(C)Cc3ccc(-c4cn(CC(=O)NO)nn4)cc3)[C@@H](C)O2)[C@H](C)[C@H](O[C@H]2O[C@@H](C)C[C@@H](N(C)C)[C@@H]2O)[C@@](C)(O)C[C@H](C)CN(C)[C@@H](C)[C@H](O)[C@@]1(C)O	> 10000	4510	> 10000
CC[C@H]1OC(=O)[C@H](C)C(=O)[C@H](C)[C@@H](O[C@@H]2O[C@H](C)C[C@H](N(C)Cc3ccc(-c4cn(CCC(=O)NO)nn4)cc3)[C@H]2O)[C@@](C)(OC)C[C@@H](C)C2=NCCN3C(=O)O[C@@]1(C)[C@H]3[C@H]2C	1730	> 10000	> 10000
CC[C@H]1OC(=O)[C@H](C)[C@@H](O[C@@H]2C[C@](C)(OC)[C@H](O)[C@@H](C)O2)[C@H](C)[C@@H](O[C@@H]2O[C@H](C)C[C@H](N(C)C)[C@H]2O)[C@@](C)(O)C[C@@H](C)CN(Cc2ccc(-c3cn(CC(=O)NO)nn3)cc2)[C@@H](C)[C@@H](O)[C@]1(C)O	> 10000	> 10000	> 10000
CC[C@@H]1OC(=O)[C@H](C)[C@@H](O[C@H]2C[C@@](C)(OC)[C@](O)(CN(C)Cc3ccc(-c4cn(CCC(=O)NO)nn4)cc3)[C@H](C)O2)[C@@H](C)[C@@H](O[C@@H]2O[C@H](C)C[C@H](N(C)C)[C@H]2O)[C@](C)(O)C[C@@H](C)CN(C)[C@H](C)[C@@H](O)[C@]1(C)O	2030	2230	> 10000
CC[C@@H]1OC(=O)[C@@H](C)[C@H](O[C@H]2C[C@@](C)(OC)[C@](O)(CN(C)Cc3ccc(-c4cn(CCC(=O)NO)nn4)cc3)[C@H](C)O2)[C@H](C)[C@H](O[C@@H]2O[C@H](C)C[C@H](N(C)C)[C@H]2O)[C@@](C)(OC)C[C@H](C)C(=O)[C@@H](C)[C@@H](O)[C@@]1(C)O	3560	10200	> 10000
CC[C@H]1OC(=O)[C@H](C)C(=O)[C@H](C)[C@@H](O[C@@H]2O[C@H](C)C[C@H](N(C)Cc3ccc(-c4cn(CC(=O)NO)nn4)cc3)[C@H]2O)[C@@](C)(OC)C[C@@H](C)C2=NCCN3C(=O)O[C@@]1(C)[C@H]3[C@H]2C	> 10000	2850	> 10000
CC[C@@H]1OC(=O)[C@H](C)[C@@H](O[C@H]2C[C@@](C)(OC)[C@](O)(CN(C)C)[C@H](C)O2)[C@@H](C)[C@@H](O[C@@H]2O[C@H](C)C[C@H](N(C)Cc3ccc(-c4cn(CCCCCC(=O)NO)nn4)cc3)[C@H]2O)[C@](C)(O)C[C@@H](C)CN(C)[C@H](C)[C@@H](O)[C@]1(C)O	14.7	1090	160
CC[C@@H]1OC(=O)[C@H](C)[C@@H](O[C@@H]2C[C@](C)(OC)[C@@](O)(CN(C)Cc3ccc(-c4cn(CCCC(=O)NO)nn4)cc3)[C@@H](C)O2)[C@@H](C)[C@@H](O[C@@H]2O[C@H](C)C[C@H](N(C)C)[C@H]2O)[C@](C)(O)C[C@@H](C)CN(C)[C@H](C)[C@@H](O)[C@]1(C)O	181	1180	> 10000
CC[C@H]1OC(=O)[C@H](C)[C@@H](O[C@@H]2C[C@](C)(OC)[C@H](O)[C@@H](C)O2)[C@@H](C)[C@@H](O[C@H]2O[C@@H](C)C[C@@H](N(C)Cc3ccc(-c4cn(CCCC(=O)NO)nn4)cc3)[C@@H]2O)[C@](C)(OC)C[C@@H](C)C(=O)[C@H](C)[C@H](O)[C@]1(C)O	70.9	986	9910
CC[C@H]1OC(=O)[C@@H](C)[C@H](O[C@H]2C[C@@](C)(OC)[C@](O)(CN(C)Cc3ccc(-c4cn(CCCCC(=O)NO)nn4)cc3)[C@H](C)O2)[C@H](C)[C@H](O[C@H]2O[C@@H](C)C[C@@H](N(C)C)[C@@H]2O)[C@@](C)(O)C[C@H](C)CN(C)[C@@H](C)[C@H](O)[C@@]1(C)O	95.3	709	531
CC[C@H]1OC(=O)[C@H](C)C(=O)[C@H](C)[C@@H](O[C@@H]2O[C@H](C)C[C@H](N(C)Cc3ccccc3-c3cn(CCCCCC(=O)NO)nn3)[C@H]2O)[C@@](C)(OC)C[C@@H](C)C2=NCCN3C(=O)O[C@@]1(C)[C@H]3[C@H]2C	248	1190	> 10000
CC[C@@H]1OC(=O)[C@@H](C)[C@H](O[C@@H]2C[C@](C)(OC)[C@@](O)(CN(C)C)[C@@H](C)O2)[C@H](C)[C@H](O[C@@H]2O[C@H](C)C[C@H](N(C)Cc3ccc(-c4cn(CCCCCC(=O)NO)nn4)cc3)[C@H]2O)[C@@](C)(OC)C[C@H](C)C(=O)[C@@H](C)[C@@H](O)[C@@]1(C)O	32.9	3200	201
CC[C@H]1OC(=O)[C@H](C)C(=O)[C@H](C)[C@@H](O[C@@H]2O[C@H](C)C[C@H](N(C)Cc3ccc(-c4cn(CCCC(=O)NO)nn4)cc3)[C@H]2O)[C@@](C)(OC)C[C@@H](C)C2=NCCN3C(=O)O[C@@]1(C)[C@H]3[C@H]2C	194	2240	> 10000
